This note sets out measurements from patent US20250084128A1, “ANTIVIRAL […]-STAPLED SARS-CoV-2 PEPTIDE-C[…] USES THEREOF” (priority 2021, published 2025).

“Also recorded” adds a separate entry of the source.

Common to all, as to assay type: cell-based
One experiment has as its system live SARS-CoV-2 virus.
In experiment [1] the test system is pseudotyped SARS-CoV-2 virus.
Experiment [2] deals with GFP-expressing SARS-CoV-1 (Urbani) pseudovirus.

As for “DISGINASVVNIQKEIDRL8EVAKNLXESLIDLQELGK [SEQ ID NO: 16]”, the differential antiviral activity result with live SARS-CoV-2 virus is listed as “moderate activity”.

For the substance “DISGINASVVNIQK8IDRLNEXAKNLNESLIDLQELGK [SEQ ID NO: 11]”, the differential antiviral activity result with live SARS-CoV-2 virus is listed as “little to no activity”.

Turning to “DISGINASVVNIQKEIDR8NEVAKNXNESLIDLQELGK [SEQ ID NO: 15]”, in the experiment on live SARS-CoV-2 virus, the differential antiviral activity entry is given as “little to no activity”.

As for “DISGINASVVNIQKEID8LNEVAKXLNESLIDLQELGK [SEQ ID NO: 14]”, the differential antiviral activity result with live SARS-CoV-2 virus is “little to no activity”.

As for “DISGINASVVNIQKEI8RLNEVAXNLNESLIDLQELGK [SEQ ID NO: 13]”, the antiviral activity entry (in experiment [1]; in experiment [2]; with live SARS-CoV-2 virus) was “consistent antiviral activity” in each case. Besides, in the experiment with live SARS-CoV-2 virus, the “antiviral activity, i, i+7 staple scan” value is listed as “potent anti-viral activity; also recorded: among the most potent antiviral activity; also recorded: uniquely potent”. Besides, the differential antiviral activity result with live SARS-CoV-2 virus is “moderate activity”.
